Data from patent US10155807B2, “Treating alcohol-mediated disorders by inhibition of RGS6” (UNIVERSITY OF IOWA RESEARCH FOUNDATION, priority 2014, dated 2018).
One block for each compound: values may come before it.

Experiments:
RGS6−/− mice [1] = assay: Activity measurement in home cage after baclofen (sedation); assay type: in vivo; conditions: 10 mg/kg i.p.; immobility time over 20 min
Protocol: After drug treatment mice were placed back in their home cage and behavior videotaped for 20 min. Videos were scored for total immobility time (no discernable ambulation, grooming, social or other behaviors) by an observer blinded to mouse genotype. Data are presented as percent total time spent immobile.

[2] = molecular target: T1, RGS6:Gαo protein:protein interaction (ppi) (Homo sapiens, UniProt P49758); assay: Alpha Screen dose response, RGS6:Gαo protein:protein interaction; assay type: binding; conditions: for IC50: Alpha Screen dose response, truncated RGS6 construct, read-out: IC50 for inhibition of RGS6:Gαo ppi; for selectivity for inhibiting the RGS6:Gαo ppi over the assay (control): ppi vs assay counter-screen
T1 sequence (P49758 336-441 limits assumed): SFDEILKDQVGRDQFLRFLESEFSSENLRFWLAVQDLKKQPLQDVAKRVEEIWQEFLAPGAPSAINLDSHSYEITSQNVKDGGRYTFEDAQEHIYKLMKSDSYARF
Text: A high throughput screen based upon the protein-protein interaction between RGS6 and its cognate G protein has been developed. This is an approach used for other RGS proteins (Bodle et al. Future Med Chem 5: 995-1007, 2013; Mackie et al. J Biomol Screen 16: 869-877, 2011; Monroy et al. PloS one 8: e62247, 2013). Briefly, human RGS6 and G protein from E. coli is expressed and purified, which are then chemically modified to attach to microspheres. These microspheres (AlphaScreen) are then dispensed into high density experimental plates, with either 384 or 1536 wells per plate. Into each of these wells, an individual compound is dispensed, and through the use of a chemiluminescent reaction between the RGS6 and G protein coated beads, whether or not the two proteins are interacting is determined. […] A critical measure is the “Z-factor,” which indicates the ability to detect an inhibitor based on the screening signal strength, and the difference between positive and negative control values. A Z-factor between 0.5 and 1 is considered to be acceptable, and the Z-factor for the RGS6 assay is quite good, at 0.61. Using this method, a screen of 2320 compounds has been completed in 384-well plates. […] These compounds are being evaluated in testing for specificity and effectiveness in functional assays. Accessing the much larger 50,000 compound Chembridge library held by UI HTS will allow much larger coverage of “chemical space” to sample chemotypes that may represent RGS6 inhibitors with drug like properties.
As described herein, a role for RGS6 in the regulation of alcohol dependency traits, and that inhibition of this protein may act as a therapeutic intervention for the disease of alcohol addiction. As such, 2320 compounds were screened in an initial effort to discover small molecule inhibitors of the RGS6:Gαo protein:protein interaction (ppi). Alpha screen technology was used in this screen, where both proteins are conjugated to their respective donor or acceptor beads and if a ppi exists the proximity of the beads to each other results in emission of light at 520-620 nm. If a small molecule disrupts the ppi, then the intensity of light emitted is diminished.
IC50 values were obtained from dose response experiments using Alpha Screen technology. Compounds were determined to be promising based on these IC50 values, and based on the selectivity the compounds had for inhibiting the ppi versus inhibiting the assay. Since the Alpha Screen assay utilizes emitted light produced by singlet oxygen interacting with the acceptor bead as a determinant of ppi, highly colored compounds, or compounds that act as oxygen scavengers can produce false positive inhibition of the assay. […] This was not determined for UI1956.
The compounds identified in this screen represent the first generation of RGS6 inhibitors. A larger screening campaign will yield molecules that are both potent and selective for inhibiting RGS6 while containing minimal reactive substructures thus cutting down on the possible side effects that reactive molecules often produce. An additional screen will utilize the full RGS6 protein. This differs from the preliminary screen above in that a truncated RGS6 construct was used for ease of purification. […]

[3] = test system: neonatal VCM isolated from WT and RGS6−/− mice; conditions: 1 μM, 1.5 hour pre-treatment; 200 mM EtOH 24 hours; WT vs RGS6−/− VCM
Protocol: Twenty-four hours after isolation and plating, cells were treated with 200 mM EtOH (24 hours) in the presence or absence of DPI (1 μM, 1.5 hour pre-treatment) where indicated. […] Intracellular ROS generation was estimated using the cell-permeable oxidation-sensitive probe, CM-H2DCFDA (Sigma) as described previously (Maity et al., J Biol Chem. 2011; 286(2):1409-19). Briefly, cells were harvested by centrifugation, washed three times with ice-cold PBS, re-suspended in PBS and incubated with 5 μM CM-H2DCFDA for 20 minutes at 37° C. After incubation cells were again washed and lysed in PBS with 1% Tween 20. ROS level was determined at the ratio of dichlorofluorescein excitation at 480 nm to emission at 530 nm.

RGS6−/− mice [4] = assay: Short-term free choice alcohol consumption with daily GABABR antagonist treatment; assay type: in vivo; conditions: 12.5 mg/kg i.p. daily; 8% EtOH free choice phase
Text: RGS6 was identified as a critical negative regulator of cerebellum GABABR-regulated motor behavior (Maity et al., J Biol Chem. 2012; 287(7):4972-81). The involvement of GABABR signaling in the reduction in alcohol drinking observed in mice lacking RGS6 was investigated. […] Both the time course of GABABR-induced activation and deactivation of the mitogen activated protein kinase (MAPK) signaling cascade were pro-longed in the cortex of RGS6^−/− mice. […] To directly test the involvement of GABABR signaling in the reduction in alcohol seeking behavior seen in RGS6^−/− mice, the short-term free choice EtOH consumption paradigm was repeated with the addition of daily GABABR antagonist treatments.
Short-term alcohol consumption was measured in WT and RGS6^−/− mice essentially as previously described (Lockridge et al., Alcohol. 2012; 46(4):389-400). First, mice were individually housed for 2 days prior to the experiment. Each cage was then outfitted with two drinking bottles made from graduated serological pipettes sealed with parafilm to prevent evaporation and attached to each cage. […] Volume levels were recorded daily, tubes refilled and mice weighed. […] Alcohol (or saccharin/quinine) preference was calculated by dividing the EtOH volume consumed by the total fluid intake.

SMILES: NCC(CC(=O)O)c1ccc(Cl)cc1 (centres unmarked) [baclofen]
sedative effect in RGS6−/− mice (RGS6−/− mice [1]): remarkably sensitized to the sedative effects

IC50 [2]: 42 µM
SMILES: O=c1c(-c2cc(O)c(O)c(O)c2)coc2cc(O)c(O)c(O)c12 [UI1956]

SMILES: c1ccc2c(c1)[I+]c1ccccc1-2 [DPI, diphenyleneiodonium]
alcohol-induced ROS generation in VCM [3]: significantly reduced ROS generation in WT but not RGS6^−/− VCM

SMILES: CC1(C)CO[C@@H](CC(=O)O)CN1 [SCH-50911]
effect on reduced EtOH consumption of RGS6−/− mice (RGS6−/− mice [4]): partially reversed the reduction in alcohol consumption

SMILES: O=C1C=C2C[C@@]3(O)COc4cc(O)ccc4C3=C2C=C1O [UI1935]
IC50 [2]: 49 µM
selectivity for inhibiting the RGS6:Gαo ppi over the assay (control) [2]: 5 fold

SMILES: Oc1ccc2c(c1)OCC1(O)Cc3cc(O)c(O)cc3C21 (centres unmarked) [UI1910]
IC50 [2]: 17 µM
selectivity for inhibiting the RGS6:Gαo ppi over the assay (control) [2]: 30 fold
